From US8088822B2, “Use of fenretinide or bioactive derivatives thereof and pharmaceutical compositions comprising the same” (priority 2008, dated 2012)

Experiments:
K562 = experiment: Apoptosis in CML cell line K562; type: cell-based; details: 4 μM fenretinide, 0.25 μM imatinib, 0.1 μM MG132, alone or combined
Protocol: (§1) 2×10^5 cultured cells were used for evaluating apoptosis using an ApoAlert Annexin V-FITC Apoptosis Kit (BD Biosciences). Cells were washed once by PBS, resuspended in 200 μl Annexin-V binding buffer, and then stained with Annexin V-FITC 5 μl, PI 10 μl for 15 min at room temperature in the dark. Cells were subsequently analyzed by flow cytometry.

[1] = test system: K562, HL60 and NB4 leukemia cell lines; experiment: Apoptosis versus intracellular ROS level in leukemia cell lines; type: cell-based; details: series of concentrations
Protocol: as §1
The intracellular generation of reactive oxygen species (ROS) was measured using of the oxidation-sensitive fluorescent dye 2,7-dichlorofluorescin diacetate (DCFH-DA) (Molecular Probes). After 3 h exposure of fenretinide, 2×10^5 cells were harvested and washed once with PBS, then loaded with 1 ml PBS containing 10 μM of DCFH-DA. The cells were then incubated at 37° C. for 30 min and the fluorescence intensity was measured at 530 nm.
Fenretinide induces ROS-dependent apoptosis is the common feature in a variety of tumors (Sun et al., 1999). Here, we extensively explored the relationship between intracellular ROS levels and apoptosis outcomes induced by fenretinide in a panel of leukemia cell lines, including K562, HL60 and NB4. The intracellular ROS levels in leukemic cells were evaluated by DCFH-DA staining, and apoptosis of leukemic cells induced by fenretinide treatment with a series of concentrations was examined through annexin-V FITC and 7AAD double staining.

[2] = test system: CD34+CD38− CML stem cells (LSC); experiment: Apoptosis (Annexin V/7AAD, FACS) of CML stem cells; type: cell-based, human
From the text: (§2) Fresh bone marrow (BM) cells were obtained from 38 patients with CML and 5 non-leukemic donors, 25 AML, 17 ALL, and 8 normal specimens with informed consent according to the Declaration of Helsinki. Approval was obtained from Institutional Review Board at the School of Medicine in Shanghai Jiao Tong University. BM mononuclear cells were isolated by Ficoll density gradient centrifugation (Shanghai Second Reagent Factory, Shanghai, China). CD34^+ Cell were selected using EasySep® Human CD34 Positive Selection kit (Stem Cell Technologies, Vancouver, BC, Canada) according to the manufacturer's instructions. The purity of CD34 cells ranged between 92 and 98% in all samples detennined by flow cytometry. The CD34^+ cells were cultured in a serum-free medium (StemPro 34; Gibco BRL, Gaithersburg, Md.) supplemented with growth factors (PeproTech, London, United Kingdom) (20). The growth factors consisted of GM-CSF (200 pg/mL), G-CSF (1 ng/mL); SCF (200 pg/mL); LIF (50 pg/mL), MIP-1α (200 pg/mL) and IL-6 (1 ng/mL).
(§3) Primitive AML and CML subpopulations (CD34^+ cells) were identified using CD34-PE in combination with CD38-APC, and followed by double-labeling with 7AAD and Annexin V antibodies for apoptosis assessment. The CD34^+ cells were first stained with antibodies against the surface markers CD34-PE and CD38-APC (Beckman Coulter, Fullerton, Calif.) and incubated at room temperature for 15 minutes. Cells were then washed with cold PBS and resuspended in 200 μL annexin V 1×binding buffer (10 mM HEPES/NaOH, pH 7.4, 140 mM NaCl, 2.5 mM CaCl2), 5 μL AnnexinV-FITC (BD Phanningen, San Diego, Calif.) and 7-aminoactinomycin (7-AAD, 0.25 mg/mL) (Molecular Probes, Eugene, Oreg.). Subsequently, the samples were incubated at room temperature for 15 minutes and analyzed by flow cytometry.
It would be of significance to find out the subpopulations specifically targeted by fenretinide. We divided the CML patient specimens into mononuclear cells and CD34^+ cells. The CD34^+ CML cells are primitive cells including CML stem and progenitor cells. Upon treated with fenretinide, CD34^+ CML cells were further subdivided into CD34^+CD38^− enriched with CML stem cells and CD34^+CD38^+ with CML progenitor cells. After gating on primitive CML subfractions, 7AAD and Annexin V antibodies were utilized for apoptosis assessment by FACS. […] The difference of apoptosis rates between CD34^+CD38^+ and CD34^+CD38^− cells was significant (p<0.001). The effects of the fenretinide exposures on the leukemia stem cells (LSC) and normal hematopoietic stem cells (HSC) in the CD34^+CD38^− cells were shown in a representative specimen (FIG. 3B). The specimens in 5 CML patients had the similar effects on the LSC and in 5 non-leukemic donors had the similar patterns as that of nonnal HSC.

[3] = test system: CD34+CD38+ CML progenitor cells; experiment: Apoptosis (Annexin V/7AAD, FACS) of CML progenitor cells; type: cell-based, human
From the text: as §2, §3
It would be of significance to find out the subpopulations specifically targeted by fenretinide. We divided the CML patient specimens into mononuclear cells and CD34^+ cells. The CD34^+ CML cells are primitive cells including CML stem and progenitor cells. […]

XBP-1 = experiment: RT-PCR of ER stress marker XBP-1 splicing in K562 cells; type: cell-based; details: whole time courses
From the text: Real-time quantitative RT-PCR was preformed on ABI7900 thermocycler detection system using SYBR Green I (Applied Biosystems, Foster City, Calif.).
Despite of tremendous efforts (Oridate et al., 1997), mechanisms underlying fenretinide-induced apoptosis are far from clear. In particular, knowledge in terms of how oxidative stress is converted into downstream activities in fenretinide-treated cancer cells is limited. We performed a comprehensive analysis of fenretinide-induced apoptosis in leukemia cell lines through microarray technology integrated robust data mining tool, and techniques of molecular biology. Transcriptome analysis of fenretinide-induced apoptosis in NB4 cells highlighted numerous stress-responsive events at the temporal-spatial level, typifying a process of oxidative stress-mediated apoptosis. Among these prominent events were genes involved in transcriptional regulation, ribosome machinery, oxidative stress, endoplasmic reticulum stress/unfolded protein response (UPR), ubiquitin-proteasome system and apoptosis (FIG. 7A). […] Recently, data have shown that fenretinide may perturb cellular homeostasis and induced ER stress, which may eventually contribute to apoptosis. ER stress is cellular defense mechanism responding to various stimuli including oxidative stressors. […]

[4] = test system: normal hematopoietic CD34+ cells; experiment: Apoptosis/viability of normal hematopoietic CD34+ cells; type: cell-based, human
From the text: as §2, §3
Primary acute leukemia cells from specimens including AML and ALL are mostly quiescent, especially for the subpopulations of leukemic CD34^+ cells (Guan and Hogge, 2000). To verify if this quiescent leukemia cells are sensitive to fenretinide, we compared the effects of fenretinide on primary leukemia versus normal specimens during short-term suspension culture. CD34^+ cells were isolated from primary acute leukemia specimens, and subjected to DNA content analysis through propidium iodide staining and followed by flow cytometry. The majority of isolated CD34^+ cells from AML and ALL were in G0/G1 phase of the cell cycle, indicating the quiescent feature of leukemia CD34^+ cells (FIG. 4A). Then, apoptosis profiles of AML CD34^+ cells and normal CD34^+ cells were examined through annexin-V FITC and 7AAD double staining (FIG. 4B).

## CC1=C(/C=C/C(C)=C/C=C/C(C)=C/C(=O)Nc2ccc(O)cc2)C(C)(C)CCC1 [fenretinide, N-(4-hydroxyphenyl)retinamide]
K562
  apoptosis rate: 2.46%
[1]
  susceptibility to fenretinide-induced apoptosis versus level of intracellular ROS: positively correlated
[2]; 2 μM fenretinide
  apoptosis of CD34+CD38− cells: 60.58%±2.76%
[2]; 4 μM fenretinide
  apoptosis of CD34+CD38− cells: 63.75%±8.49%
[2]; 6 μM fenretinide
  apoptosis of CD34+CD38− cells: 62.83%±9.72%
[2]; representative specimen
  reduction of LSC in the CD34+CD38− cells: 80.3%
[2]; representative specimen, fenretinide alone or co-treatment with imatinib
  apoptosis in the LSC (CML stem cells): 53.3%
[3]; 2 μM fenretinide
  apoptosis of CD34+CD38+ cells: 17.83%±6.01%
[3]; 4 μM fenretinide
  apoptosis of CD34+CD38+ cells: 30.60%±4.93%
[3]; 6 μM fenretinide
  apoptosis of CD34+CD38+ cells: 33.08%±19.43%
XBP-1
  splicing of the XBP-1 gene: observable
[4]; 5 μM fenretinide
  viability of normal hematopoietic CD34+ cells: 97.1%
[4]; 7.5 μM fenretinide
  viability of normal hematopoietic CD34+ cells: 58.1%
[4]; from viability of normal CD34+ cells
  safe dose (presumed): below 5 μM
[4]; short-term suspension culture
  response of normal hematopoietic CD34+ cells: relative resistant
